Experiments:
[1] = target: serotonin transporter in rat synaptosome (Rattus norvegicus (Rat), UniProt P31652); assay: Inhibitory effect on [3H]5-HT uptake in rat synaptosome; format: biochemical; conditions: rat brain synaptosomes, 0.1 μCi [3H]5-HT, 37° C., 15 minutes
Description: The synaptosomes (150 μg) prepared from a rat brain were incubated at 37° C. for 15 minutes with 0.1 μCi [^3H]5-HT in the absence or presence of the test compound or the reference compound in a buffer solution containing 106.2 mM NaCl, 4.5 mM KCl, 2.25 mM MgSO4, 1.08 mM NaH2PO4, 22.5 mM NaHCO3, 9.9 mM glucose, 9 μM EGTA and 45 μM ascorbic acid (pH 7.4).
The basal control activity was determined by incubating the same mixture at 4° C. for 15 minutes in the presence of 10 μM imipramine to block the uptake of 5-HT, which was taken as the standard reference compound and tested in each experiment at several concentrations to obtain an inhibition curve.
Following the incubation, the samples were filtered rapidly under vacuum through glass fiber filters (GF/B, Packard) and rinsed twice with an ice-cold incubation buffer using a 96-sample cell harvester (Unifilter, Packard) to eliminate free [^3H]5-HT. The filters were dried and the retained radioactivity was measured in a scintillation counter (Topcount, Packard) using a scintillation cocktail (Microscint 0, Packard). The experimental results were expressed as a percent inhibition of the control uptake of [^3H]5-HT.
Inhibition of serotonin transporter in rat synaptosome was measured by the concentrations of [^3H]5-HT.

human 5-HT1A receptor = human 5-HT1A receptor (Homo sapiens (Human), UniProt P08908); assay: Affinity for human 5-HT1A receptor ([3H]8-OH-DPAT binding, HEK-293 cell homogenates); conditions: 0.3 nM [3H]8-OH-DPAT, human HEK-293 cell homogenates, 22° C., 60 minutes; Ki from IC50 by ChengPrusoff equation
Chain of human 5-HT1A receptor (P08908 whole entry): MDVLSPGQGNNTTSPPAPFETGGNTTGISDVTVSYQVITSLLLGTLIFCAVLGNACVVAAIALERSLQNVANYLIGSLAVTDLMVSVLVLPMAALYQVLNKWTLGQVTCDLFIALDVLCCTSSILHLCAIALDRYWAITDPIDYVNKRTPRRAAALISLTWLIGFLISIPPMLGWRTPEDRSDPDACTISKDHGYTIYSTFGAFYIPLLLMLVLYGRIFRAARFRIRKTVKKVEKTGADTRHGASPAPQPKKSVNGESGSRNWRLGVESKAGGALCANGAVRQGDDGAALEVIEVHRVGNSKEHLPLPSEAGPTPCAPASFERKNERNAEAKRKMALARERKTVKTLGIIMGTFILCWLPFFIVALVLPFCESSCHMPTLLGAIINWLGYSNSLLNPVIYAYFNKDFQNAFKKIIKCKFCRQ
Description: Human HEK-293 cell homogenates (36 μg protein) were incubated at 22° C. for 60 minutes with 0.3 nM [^3H]8-0H-DPAT (Perkin-Elmer) in the absence or presence of the test compound in a buffer solution containing 50 mM Tris-HCl (pH 7.4), 10 mM MgSO4, 0.5 mM EDTA and 2 μg/ml aprotinine.
The non-specific binding value was determined by incubating the same mixture in the presence of 10 μM 8-OH-DPAT, which was used as the standard reference compound and tested in each experiment at several concentrations to obtain a competition curve.
Following the incubation, the samples were filtered rapidly under vacuum through glass fiber filter (GF/B, Packard) presoaked with 0.3% PEI and rinsed several times with ice-cold 50 mM Tris-HCl using a 96-sample cell harvester (Unifilter, Packard). The filters were dried and the retained radioactivity was measured in a scintillation counter (Topcount, Packard) using a scintillation cocktail (Microscint 0, Packard). The experimental results were expressed as a percent inhibition of the control radioligand specific binding.
Binding assay of [^3H] 8-OH-DPAT (0.3 nM) with 5-HT1A receptor in human HEK-293 cell was tested by scintillation proximity assay of membrane.

Chain of serotonin transporter in rat synaptosome (P31652 whole entry): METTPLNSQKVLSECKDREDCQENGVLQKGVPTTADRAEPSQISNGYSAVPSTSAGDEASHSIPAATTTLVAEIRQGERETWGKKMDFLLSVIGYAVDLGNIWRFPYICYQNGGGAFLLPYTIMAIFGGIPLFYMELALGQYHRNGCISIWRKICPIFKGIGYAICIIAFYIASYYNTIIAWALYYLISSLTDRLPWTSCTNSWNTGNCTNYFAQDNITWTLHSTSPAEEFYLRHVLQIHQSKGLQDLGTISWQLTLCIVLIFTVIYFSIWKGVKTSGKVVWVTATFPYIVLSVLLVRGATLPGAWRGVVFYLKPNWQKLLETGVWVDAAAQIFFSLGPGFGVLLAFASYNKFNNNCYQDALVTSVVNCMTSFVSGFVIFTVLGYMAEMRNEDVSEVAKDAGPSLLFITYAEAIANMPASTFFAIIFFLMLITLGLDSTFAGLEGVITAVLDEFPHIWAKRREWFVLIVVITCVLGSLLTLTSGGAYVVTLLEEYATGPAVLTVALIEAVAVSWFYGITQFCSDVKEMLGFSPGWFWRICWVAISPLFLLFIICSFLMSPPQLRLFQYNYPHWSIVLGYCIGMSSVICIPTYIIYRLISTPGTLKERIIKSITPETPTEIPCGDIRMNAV

SMILES	IC50 [1] [nM]	Ki (human 5-HT1A receptor) [nM]
O=C1CCCCN1c1ccc(N2CCN(CCCCc3c[nH]c4ccc(F)cc34)CC2)cc1 [Example 1, 1-(4-(4-(4-(5-fluoro-1H-indol-3-yl)butyl)piperazin-1-yl)phenyl)piperidin-2-one]	4.3	2.5
N#Cc1ccc2[nH]cc(CCN3CCN(c4ccc(-n5ccccc5=O)cc4)CC3)c2c1 [Example 13, 3-(2-(4-(4-(2-oxopyridin-1(2H)-yl)phenyl)piperazin-1-yl)ethyl)-1H-indole-5-carbonitrile]	2.6	54
N#Cc1ccc2[nH]cc(CCCN3CCN(c4ccc(N5CCOCC5=O)cc4)CC3)c2c1 [Example 8, 3-(3-(4-(4-(3-oxomorpholino)phenyl)piperazin-1-yl)propyl)-1H-indole-5-carbonitrile]	10	3.2
COc1ccn(-c2ccc(N3CCN(CCCCCc4c[nH]c5ccc(C#N)cc45)CC3)cc2)c(=O)c1 [Example 24, 3-(5-(4-(4-(4-methoxy-2-oxopyridin-1(2H)-yl)phenyl)piperazin-1-yl)pentyl)-1H-indole-5-carbonitrile]	5.5	12
O=C1CCCCN1c1ccc(N2CCN(CCCc3c[nH]c4ccc(F)cc34)CC2)cc1 [Example 3, 1-(4-(4-(3-(5-fluoro-1H-indol-3-yl)propyl)piperazin-1-yl)phenyl)piperidin-2-one]	4.2	3.2
N#Cc1ccc2[nH]cc(CCCCN3CCN(c4ccc(-n5ccc6occc6c5=O)cc4)CC3)c2c1 [Example 33, 3-(4-(4-(4-(4-oxofuro[3,2-c]pyridin-5 (4H)-yl)phenyl)piperazin-1-yl)butyl)-1H-indole-5-carbonitrile]	0.53	0.14
N#Cc1ccc2[nH]cc(C(O)CCN3CCN(c4ccc(-n5ccccc5=O)cc4)CC3)c2c1 (stereo not shown) [Example 16, 3-(1-hydroxy-3-(4-(4-(2-oxopyridin-1(2H)-yl)phenyl)piperazin-1-yl)propyl)-1H-indole-5-carbonitrile]	170	–
N#Cc1ccc2[nH]cc(CCCCN3CCN(c4ccc(N5CCCNC5=O)cc4)CC3)c2c1 [Example 37, 3-(4-(4-(4-(2-oxotetrahydropyrimidin-1(2H)-yl)phenyl)piperazin-1-yl)butyl)-1H-indole-5-carbonitrile]	1.3	1.3
Cc1ccn(-c2ccc(N3CCN(CCCCCc4c[nH]c5ccc(C#N)cc45)CC3)cc2)c(=O)c1 [Example 20, 3-(5-(4-(4-(4-methyl-2-oxopyridin-1(2H)-yl)phenyl)piperazin-1-yl)pentyl)-1H-indole-5-carbonitrile]	3.6	4.7
O=c1ccccn1-c1ccc(N2CCN(CCCCc3c[nH]c4ccc(F)cc34)CC2)cc1 [Example 10, 1-(4-(4-(4-(5-fluoro-1H-indol-3-yl)butyl)piperazin-1-yl)phenyl)pyridin-2(1H)-one]	1.6	0.19
N#Cc1ccc2[nH]cc(CCCN3CCN(c4ccc(-n5ccc6ncccc6c5=O)cc4)CC3)c2c1 [Example 32, 3-(3-(4-(4-(5-oxo-1,6-naphthyridin-6(5H)-yl)phenyl)piperazin-1-yl)propyl)-1H-indole-5-carbonitrile]	0.93	1.7
N#Cc1ccc2[nH]cc(C(O)CCCN3CCN(c4ccc(-n5ccccc5=O)cc4)CC3)c2c1 (stereo not shown) [Example 15, 3-(1-hydroxy-4-(4-(4-(2-oxopyridin-1(2H)-yl)phenyl)piperazin-1-yl)butyl)-1H-indole-5-carbonitrile]	330	–
N#Cc1ccc2[nH]cc(CCCN3CCN(c4ccc(-n5cc(F)cc(F)c5=O)cc4)CC3)c2c1 [Example 26, 3-(3-(4-(4-(3,5-difluoro-2-oxopyridin-1(2H)-yl)phenyl)piperazin-1-yl)propyl)-1H-indole-5-carbonitrile]	1.3	0.31
O=C1COCCN1c1ccc(N2CCN(CCCc3c[nH]c4ccc(F)cc34)CC2)cc1 [Example 7, 4-(4-(4-(3-(5-fluoro-1H-indol-3-yl)propyl)piperazin-1-yl)phenyl)morpholin-3-one]	7.3	6.4
O=C1COCCN1c1ccc(N2CCN(CCCCc3c[nH]c4ccc(F)cc34)CC2)cc1 [Example 5, 4-(4-(4-(4-(5-fluoro-1H-indol-3-yl)butyl)piperazin-1-yl)phenyl)morpholin-3-one]	6.3	3.1
N#Cc1ccc2[nH]cc(CCCCN3CCN(c4ccc(-n5ccc6ncccc6c5=O)cc4)CC3)c2c1 [Example 31, 3-(4-(4-(4-(5-oxo-1,6-naphthyridin-6(5H)-yl)phenyl)piperazin-1-yl)butyl)-1H-indole-5-carbonitrile]	0.23	0.5
N#Cc1ccc2[nH]cc(CCN3CCN(c4ccc(-n5cc(F)cc(F)c5=O)cc4)CC3)c2c1 [Example 27, 3-(2-(4-(4-(3,5-difluoro-2-oxopyridin-1(2H)-yl)phenyl)piperazin-1-yl)ethyl)-1H-indole-5-carbonitrile]	5.5	68
N#Cc1ccc2[nH]cc(CCCCN3CCN(c4ccc(-n5cc(F)cc(F)c5=O)cc4)CC3)c2c1 [Example 25, 3-(4-(4-(4-(3,5-difluoro-2-oxopyridin-1(2H)-yl)phenyl)piperazin-1-yl)butyl)-1H-indole-5-carbonitrile]	1.4	0.18
Cc1ccn(-c2ccc(N3CCN(CCc4c[nH]c5ccc(C#N)cc45)CC3)cc2)c(=O)c1 [Example 19, 3-(2-(4-(4-(4-methyl-2-oxopyridin-1(2H)-yl)phenyl)piperazin-1-yl)ethyl)-1H-indole-5-carbonitrile]	2	33
COc1ccn(-c2ccc(N3CCN(CCc4c[nH]c5ccc(C#N)cc45)CC3)cc2)c(=O)c1 [Example 23, 3-(2-(4-(4-(4-methoxy-2-oxopyridin-1(2H)-yl)phenyl)piperazin-1-yl)ethyl)-1H-indole-5-carbonitrile]	12	–

Other lines, results leading:

IC50 [1] [nM]	Ki (human 5-HT1A receptor) [nM]	SMILES
8	0.23	N#Cc1ccc2[nH]cc(CCCCN3CCN(c4ccc(-n5ccccc5=O)cc4)CC3)c2c1 [Example 9, 3-(4-(4-(4-(2-oxopyridin-1(2H)-yl)phenyl)piperazin-1-yl)butyl)-1H-indole-5-carbonitrile]
1.8	3	N#Cc1ccc2[nH]cc(CCCN3CCN(c4ccc(-n5ccncc5=O)cc4)CC3)c2c1 [Example 36, 3-(3-(4-(4-(2-oxopyrazin-1(2H)-yl)phenyl)piperazin-1-yl)propyl)-1H-indole-5-carbonitrile]
1.8	0.61	COc1ccn(-c2ccc(N3CCN(CCCc4c[nH]c5ccc(C#N)cc45)CC3)cc2)c(=O)c1 [Example 22, 3-(3-(4-(4-(4-methoxy-2-oxopyridin-1(2H)-yl)phenyl)piperazin-1-yl)propyl)-1H-indole-5-carbonitrile]
0.98	1.2	N#Cc1ccc2[nH]cc(CCCN3CCN(c4ccc(-n5ccccc5=O)cc4)CC3)c2c1 [Example 11, 3-(3-(4-(4-(2-oxopyridin-1(2H)-yl)phenyl)piperazin-1-yl)propyl)-1H-indole-5-carbonitrile]
10	–	N#Cc1ccc2[nH]cc(CCCCN3CCN(c4ccc(-n5ccc6ccccc6c5=O)cc4)CC3)c2c1 [Example 29, 3-(4-(4-(4-(1-oxoisoquinolin-2(1H)-yl)phenyl)piperazin-1-yl)butyl)-1H-indole-5-carbonitrile]
4.2	0.1	N#Cc1ccc2[nH]cc(CCCN3CCN(c4ccc(-n5ccc6occc6c5=O)cc4)CC3)c2c1 [Example 34, 3-(3-(4-(4-(4-oxofuro[3,2-c]pyridin-5 (4H)-yl)phenyl)piperazin-1-yl)propyl)-1H-indole-5-carbonitrile]
7.5	0.89	Cc1ccn(-c2ccc(N3CCN(CCCc4c[nH]c5ccc(C#N)cc45)CC3)cc2)c(=O)c1 [Example 18, 3-(3-(4-(4-(4-methyl-2-oxopyridin-1(2H)-yl)phenyl)piperazin-1-yl)propyl)-1H-indole-5-carbonitrile]
7.4	1.2	COc1ccn(-c2ccc(N3CCN(CCCCc4c[nH]c5ccc(C#N)cc45)CC3)cc2)c(=O)c1 [Example 21, 3-(4-(4-(4-(4-methoxy-2-oxopyridin-1(2H)-yl)phenyl)piperazin-1-yl)butyl)-1H-indole-5-carbonitrile]
